Values of other authors as cited in patent US10597401B2, “Methods and intermediates for the preparation of omacetaxine and cephalotaxine derivatives thereof” (ALBANY MOLECULAR RESEARCH, INC., priority 2015, dated 2020).

Conditions: background statement, no test described

SMILES: COC1=C[C@]23CCCN2CCc2cc4c(cc2[C@@H]3[C@@H]1O)OCO4 [cephalotaxine]
- biological activity: biologically inactive
